Data reported in patent publication US20040009973A1, “Novel potassium channels modulators” (4SC AG, priority 2002, published 2004).

Key:
[1] = target: T1, BK potassium channel, cloned hSlo (α-hSlo and β-bSlo) in CHO cells (Homo sapiens, UniProt Q12791); test: Em-Assay: membrane potential with voltage sensitive dye DiBAC(4)3, fluorescence plate reader; type: cell-based; settings: compound 50 μM; NS004 25 or 50 μM; hSlo transfected CHO cells; change in DiBAC(4)3 fluorescence intensity
T1 construct: expressed in transfected cells; host or cells: CHO cells, permanently transfected
T1 sequence (Q12791 1-1178 isoform Q12791-5): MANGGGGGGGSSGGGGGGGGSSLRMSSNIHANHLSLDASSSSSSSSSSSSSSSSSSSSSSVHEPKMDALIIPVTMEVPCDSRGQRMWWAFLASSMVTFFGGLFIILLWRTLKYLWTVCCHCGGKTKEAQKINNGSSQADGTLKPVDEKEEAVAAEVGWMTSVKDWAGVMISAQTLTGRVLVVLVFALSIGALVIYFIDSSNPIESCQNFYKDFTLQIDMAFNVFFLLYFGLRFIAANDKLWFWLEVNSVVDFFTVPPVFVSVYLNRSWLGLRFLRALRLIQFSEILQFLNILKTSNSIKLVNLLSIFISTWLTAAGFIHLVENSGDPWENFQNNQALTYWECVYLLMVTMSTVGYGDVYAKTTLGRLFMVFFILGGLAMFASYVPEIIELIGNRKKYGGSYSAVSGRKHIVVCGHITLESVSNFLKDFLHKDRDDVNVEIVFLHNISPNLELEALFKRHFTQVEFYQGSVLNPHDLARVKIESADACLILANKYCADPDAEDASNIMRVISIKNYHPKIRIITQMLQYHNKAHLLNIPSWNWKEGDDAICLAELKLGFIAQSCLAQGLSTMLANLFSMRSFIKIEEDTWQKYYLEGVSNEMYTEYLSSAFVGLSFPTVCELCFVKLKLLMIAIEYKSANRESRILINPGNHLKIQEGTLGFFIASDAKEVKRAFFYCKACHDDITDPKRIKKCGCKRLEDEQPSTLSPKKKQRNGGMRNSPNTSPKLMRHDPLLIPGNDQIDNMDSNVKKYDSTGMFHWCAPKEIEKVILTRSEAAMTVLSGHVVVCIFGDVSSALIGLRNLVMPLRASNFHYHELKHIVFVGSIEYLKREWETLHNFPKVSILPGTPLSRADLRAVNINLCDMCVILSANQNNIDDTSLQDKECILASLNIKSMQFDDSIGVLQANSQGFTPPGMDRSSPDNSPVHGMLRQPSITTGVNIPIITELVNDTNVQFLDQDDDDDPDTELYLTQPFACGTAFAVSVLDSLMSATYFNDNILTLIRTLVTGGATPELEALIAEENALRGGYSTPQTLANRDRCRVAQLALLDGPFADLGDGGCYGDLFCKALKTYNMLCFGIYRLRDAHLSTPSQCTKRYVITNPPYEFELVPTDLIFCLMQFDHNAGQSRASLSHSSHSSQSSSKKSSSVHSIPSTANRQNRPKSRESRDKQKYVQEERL
T1 sequence (Q28067 2-191 partner limits assumed): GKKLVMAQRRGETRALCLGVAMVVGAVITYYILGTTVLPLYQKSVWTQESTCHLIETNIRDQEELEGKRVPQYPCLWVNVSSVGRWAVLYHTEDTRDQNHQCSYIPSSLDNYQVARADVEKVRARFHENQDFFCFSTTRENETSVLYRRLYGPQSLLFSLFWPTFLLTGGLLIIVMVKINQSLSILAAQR
Excerpt: The large conductance, voltage-dependent and Ca^2+-activated potassium channel BK is a potassium selective ion channel and belongs to the subfamily of KCa channels. Four BK alpha-subunits form a functional channel that can be regulated by intracellular Ca^2+ concentration, membrane voltage, and other mechanisms like phosphorylation states or beta subunits. To test the biological activity of the compounds, we applied two different techniques, a fluorescence based assay using a voltage sensitive dye (Em-Assay) as well as exploiting electrophysiological methods.
CHO cells permanently transfected with cloned hSlo (α-hSlo and β-bSlo), yielding typical BK potassium currents (Zhou et al., Pflügers Arch., 436: 725-734 (1998), were used for the evaluation of compound activity. Activation or inhibition of BK channels in these cells leads to a change of the electrochemical gradient causing a hyperpolarized or depolarised membrane potential, respectively.
To determine changes in the membrane potential of the cells we used the voltage sensitive dye DiBAC(4)3 (Molecular Probes) in a kinetic assay system using a fluorescent plate reader (Manning and Sontheimer, J. Neurosci, Meth., 91: 73-81 (1999). The anionic bis-oxonol DiBAC(4)3 is a voltage sensitive dye which partitions from the extracellular environment into the cell where it reversibly binds to intracellular proteins, a kinetic process depending on the membrane potential of the cell. At depolarised potentials (i.e. at a reduced K^+ efflux due to blocked K^+ channels) the dye accumulates in the cell leading to an increased fluorescence intensity, due to its increased fluorescence if bound to cellular proteins. At hyperpolarized potentials (i.e. at an increased K^+ efflux due to the opening of K^+ channels), the dye partitions out of the cell causing a decreased fluorescence intensity.
hSlo transfected CHO cells where maintained in DMEM supplemented with 10% FCS, 250 μg/ml Geneticin, 100 μg/ml Hygromycin, 1×HT-Supplement, and 1×Non-essential Amino Acids and cultured in a humidified CO2 incubator. After trypsination, cells where plated with a density of 5×10^4 cells per well on a clear 96-well plate and incubated for 24 h. Cells where washed once with PBS, once with PBS containing 20 mM HEPES (adjusted to pH 7.4 with NaOH) and 2 μM DIBAC(4)3 (DPBS-DiBAC solution). 180 μl of the dPBS-DiBAC solution was then added to the cells and the plate incubated for 30-60 min at 37° C. During this time the dye could partition into the cells and reach a certain steady-state distribution, depending on the resting membrane potential. Test and reference compounds were stored as DMSO stock solutions and diluted in dPBS-DiBAC solution to the desired concentration.
Fluorescence intensity (Ex.: 485 nm/Em.: 520 nm) of each well was detected in the plate reader (Fluostar, BMG) every 60 seconds. After recording the baseline fluorescence for 7 minutes, 20 μl test—and reference compounds were added and the fluorescence intensity was detected for additional 15 minutes. Background was subtracted, data values were normalized and expressed as a change in fluorescence intensity against time. The change in fluorescence intensity caused by the test compounds was evaluated, compared to the effect of the reference compound NS004, and the ratio was determined (see Table I).

[2] = target: BK currents, cloned α-hSlo and β-bSlo in CHO cells (Homo sapiens, UniProt Q12791); test: Electrophysiological studies: whole-cell patch-clamp of BK currents; type: cell-based; settings: compound 20 μM, steady-state BK current, free internal Ca2+ 1×10^−6M
BK currents, cloned α-hSlo and β-bSlo in CHO cells, sequence (Q12791 whole entry): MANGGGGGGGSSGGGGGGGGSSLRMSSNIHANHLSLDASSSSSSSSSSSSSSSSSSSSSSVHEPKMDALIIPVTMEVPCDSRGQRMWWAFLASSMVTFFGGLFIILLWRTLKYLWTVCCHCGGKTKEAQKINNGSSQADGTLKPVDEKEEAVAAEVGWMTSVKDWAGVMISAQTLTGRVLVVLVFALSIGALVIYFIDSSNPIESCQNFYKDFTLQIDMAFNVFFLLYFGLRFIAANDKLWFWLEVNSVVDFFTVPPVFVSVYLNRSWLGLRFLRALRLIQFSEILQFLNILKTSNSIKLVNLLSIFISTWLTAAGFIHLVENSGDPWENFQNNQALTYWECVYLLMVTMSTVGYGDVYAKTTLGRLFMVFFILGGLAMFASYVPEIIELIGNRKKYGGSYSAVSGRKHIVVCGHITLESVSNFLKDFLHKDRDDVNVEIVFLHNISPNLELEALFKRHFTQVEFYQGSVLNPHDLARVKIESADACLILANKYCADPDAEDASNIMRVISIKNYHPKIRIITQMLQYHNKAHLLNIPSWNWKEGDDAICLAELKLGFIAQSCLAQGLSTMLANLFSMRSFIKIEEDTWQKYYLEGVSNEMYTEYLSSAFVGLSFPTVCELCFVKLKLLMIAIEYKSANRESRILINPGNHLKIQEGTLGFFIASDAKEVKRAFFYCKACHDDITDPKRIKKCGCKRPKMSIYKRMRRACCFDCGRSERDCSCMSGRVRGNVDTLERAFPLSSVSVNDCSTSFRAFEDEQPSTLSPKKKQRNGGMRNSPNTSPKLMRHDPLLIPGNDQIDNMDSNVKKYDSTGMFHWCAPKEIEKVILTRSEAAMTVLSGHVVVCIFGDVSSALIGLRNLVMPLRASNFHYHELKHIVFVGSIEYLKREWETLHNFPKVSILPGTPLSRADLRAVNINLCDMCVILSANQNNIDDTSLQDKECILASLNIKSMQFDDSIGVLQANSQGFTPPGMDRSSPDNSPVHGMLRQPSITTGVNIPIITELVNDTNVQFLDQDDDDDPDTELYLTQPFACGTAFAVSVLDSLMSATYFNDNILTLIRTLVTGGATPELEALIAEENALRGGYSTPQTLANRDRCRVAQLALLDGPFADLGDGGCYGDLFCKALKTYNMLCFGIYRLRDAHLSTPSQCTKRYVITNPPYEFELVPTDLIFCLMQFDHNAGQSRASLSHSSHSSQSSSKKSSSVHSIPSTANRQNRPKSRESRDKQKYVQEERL
BK currents, cloned α-hSlo and β-bSlo in CHO cells, sequence (Q28067 2-191 partner): as the sequence (Q28067 2-191 partner limits assumed) above
Description: Electrophysiological Studies:
CHO cells permanently transfected with cloned α-hSlo and β-bSlo were maintained as described above and used for electrophysiological characterisation, The whole-cell configuration of the patch-clamp technique was used to determine the effect of modulators on BK currents in these cells. The cell line expressing functional BK currents (Zhou et al., Pflügers Arch. 436, p.725 (1998)) were plated onto glass cover slips with a density of 1-5×10^4 cells/cover slip, incubated (37° C., 5% CO2) and used for patch-clamp experiments within 24-48 h. Cells were bathed in mammalian ringer solutions containing (in mM): 160NaCl, 4.5KCl, 2CaCl2, 1MgCl2, 10 HEPES, adjusted to pH 7.4, 290-310 mOsm. The internal pipette solution contained (in mM): 160KCl, 2CaCl2, 1MgCl2, 10 HEPES, EGTA was added to reach a free [Ca^2+]internal=1×10^−6M, adjusted to pH 7.2, 290-310 mOsm. Borosilicate pipettes with a resistance of 2-3 MΩ were filled with the internal solution and mounted on an appropriate holder. Prior to measurements a recording chamber was mounted onto the cell-plated cover slips and the cells were perfused with a simple syringe driven perfusion system. Compounds were added in the final concentration ([…]) to the bath solution using the same system. An EPC-9 patch-clamp amplifier with Pulse and PulseFit software (HEKA) was used to record and analyze currents.
After addition of the compounds to the bath solution their modulating effect was determined by the increase or decrease of specific BK currents after reaching steady-state relative to the BK current before application of drugs (see Table II).

| Em effect: ratio of the compound effect compared to the maximal effect of NS004 [1] | Effect: ratio of current increase after application of compound relative to the control current before compound application [2] | Structure (SMILES) |
| --- | --- | --- |
| +++ (>1.5 = +++) | + (1-1.1 = +) | FC(F)(F)c1cc(NCc2cccc(Cl)c2)cc(NCc2ccc3ccccc3c2)c1 [Compound 7, N-(3-Chlorobenzyl)-N′-naphthalen-2-ylmethyl-5-trifluoromethyl-benzene-1,3-diamine] |
| +++ (>1.5 = +++) | + (1-1.1 = +) | Clc1cc(NCc2ccc3ccccc3c2)ccc1NCc1ccc2ccccc2c1 [Compound 15] |
| +++ (>1.5 = +++) | ++ (>1, 1-1.2 = ++) | FC(F)(F)c1cc(NCc2ccc(Br)cc2)cc(NCc2ccc3ccccc3c2)c1 [Compound 6, N-(4-Bromobenzyl)-N′-naphthalen-2-ylmethyl-5-trifluoromethylbenzene-1,3-diamine] |
| + (0-1 = +) | – | Clc1ccccc1CNc1ccc(NCc2ccccc2Cl)cc1 [Compound 95, N,N′-bis-(2-chlorobenzyl)-benzene-1,4-diamine] |
| + (0-1 = +) | – | Fc1cc(F)cc(CNc2ccc(NCc3cc(F)cc(F)c3)cc2)c1 [Compound 98, N,N′-bis-(3,5-difluorobenzyl)-benzene-1,4-diamine] |
| ++ (>1-1.5 = ++) | – | Fc1ccc(CNc2cccc(NCc3ccc(F)cc3Cl)c2)c(Cl)c1 [Compound 37, N,N′-bis-(2-chloro-4-fluorobenzyl)-benzene-1,3-diamine] |
| + (0-1 = +) | – | Fc1cc(F)cc(CNc2cccc(NCc3ccc(-c4csnn4)cc3)c2)c1 [Compound 53, N-(3,5-difluorobenzyl)-N′-(4-[1,2,3]thiadiazol-4-yl-benzyl)-benzene-1,3-diamine] |
| + (0-1 = +) | – | Fc1ccc(CNc2ccc(NCc3ccc(F)cc3F)c(Cl)c2)c(F)c1 [Compound 106] |

More lines, now with the values behind:

| Structure (SMILES) | Em effect: ratio of the compound effect compared to the maximal effect of NS004 [1] | Effect: ratio of current increase after application of compound relative to the control current before compound application [2] |
| --- | --- | --- |
| Clc1cccc(CNc2cccc(NCc3cccc(Cl)c3)c2)c1 [Compound 11] | + (0-1 = +) | + (1-1.1 = +) |
| Clc1cc(NCc2ccc(Br)cc2)ccc1NCc1ccc(Br)cc1 [Compound 13, N^1,N^4-Bis-(4-bromobenzyl)-2-chlorobenzene-1,4-diamine] | +++ (>1.5 = +++) | +++ (>1.2 = +++) |
| Fc1cccc(CNc2cccc(NCc3cccc(F)c3)c2)c1 [Compound 35, N,N′-bis-(3-fluorobenzyl)-benzene-1,3-diaimine] | ++ (>1-1.5 = ++) | +++ (>1.2 = +++) |
| Clc1cccc(CNc2ccc(NCc3cccc(Cl)c3)c(Cl)c2)c1 [Compound 14] | +++ (>1.5 = +++) | + (1-1.1 = +) |
| Brc1ccc(CNc2cccc(NCc3ccc(Br)cc3)c2)cc1 [Compound 12] | + (0-1 = +) | + (1-1.1 = +) |
| Clc1cccc(CNc2ccc(NCc3ccc4ccccc4c3)c(Cl)c2)c1 [Compound 22] | + (0-1 = +) | – |
| CC(C)(C)c1ccc(CNc2cc(NCc3csc4ccc(Cl)cc34)cc(C(F)(F)F)c2)cc1 [Compound 78] | + (0-1 = +) | – |
| Clc1cccc(CNc2ccc(NCc3ccc(Br)cc3)c(Cl)c2)c1 [Compound 21, N^1-(4-Bromobenzyl)-2-chloro-N^4-(3-chlorobenzyl)-benzene-1,4-diamine] | + (0-1 = +) | – |
| Clc1cc(NCc2ccc(-c3csnn3)cc2)c(Cl)cc1NCc1ccc(-c2csnn2)cc1 [Compound 89] | + (0-1 = +) | – |
| O=[N+]([O-])c1ccc(CNc2cccc(NCc3ccc(F)cc3F)c2)o1 [Compound 54, N-(2,4-difluorobenzyl)-N′-(5-nitrofuran-2-ylmethyl)-benzene1,3-diamine] | + (0-1 = +) | – |
| CS(=O)(=O)c1ccc(CNc2cccc(NCc3c(F)cccc3F)c2)cc1 [Compound 50, N-(2,6-difluorobenzyl)-N′-(4-methanesulfonylbenzyl)-benzene-1,3-diamine] | + (0-1 = +) | – |
| FC(F)(F)c1ccccc1CNc1ccc(NCc2ccccc2C(F)(F)F)cc1 [Compound 97] | + (0-1 = +) | – |
| N#Cc1ccccc1-c1ccc(CNc2cccc(NCc3ccc(-c4ccccc4C#N)cc3)c2)cc1 [Compound 30] | + (0-1 = +) | – |
| Cc1cc(NCc2cccc(F)c2)ccc1NCc1cccc(F)c1 [Compound 103, N^1,N^4-bis-(3-fluorobenzyl)-2-methylbenzene-1,4-diamnine] | + (0-1 = +) | – |
| CS(=O)(=O)c1ccc(CNc2cccc(NCc3cccc(F)c3)c2)cc1 [Compound 45] | + (0-1 = +) | – |
| O=[N+]([O-])c1ccc(CNc2cc(NCc3ccccc3C(F)(F)F)cc(C(F)(F)F)c2)o1 [Compound 85] | + (0-1 = +) | – |
| Fc1cccc(CNc2ccc(NCc3cccc(F)c3)c(Cl)c2)c1 [Compound 107] | + (0-1 = +) | – |
